According to US9556201B2, “Bicyclic pyridines and analogs as sirtuin modulators” (GLAXOSMITHKLINE LLC, priority 2009, dated 2017):

How the values were obtained:
SIRT1 = biological target: T1, SIRT1 (Homo sapiens, UniProt Q96EB6); assay: Mass spectrometry based assay to identify modulators of SIRT1 activity (deacetylation of p53-based acetylated peptide substrate); type: biochemical; conditions: SIRT1 activation; for Emax: 25 min, read-out: % FOLD ACT. (percent maximum fold activation)
T1 sequence (Q96EB6 1-747): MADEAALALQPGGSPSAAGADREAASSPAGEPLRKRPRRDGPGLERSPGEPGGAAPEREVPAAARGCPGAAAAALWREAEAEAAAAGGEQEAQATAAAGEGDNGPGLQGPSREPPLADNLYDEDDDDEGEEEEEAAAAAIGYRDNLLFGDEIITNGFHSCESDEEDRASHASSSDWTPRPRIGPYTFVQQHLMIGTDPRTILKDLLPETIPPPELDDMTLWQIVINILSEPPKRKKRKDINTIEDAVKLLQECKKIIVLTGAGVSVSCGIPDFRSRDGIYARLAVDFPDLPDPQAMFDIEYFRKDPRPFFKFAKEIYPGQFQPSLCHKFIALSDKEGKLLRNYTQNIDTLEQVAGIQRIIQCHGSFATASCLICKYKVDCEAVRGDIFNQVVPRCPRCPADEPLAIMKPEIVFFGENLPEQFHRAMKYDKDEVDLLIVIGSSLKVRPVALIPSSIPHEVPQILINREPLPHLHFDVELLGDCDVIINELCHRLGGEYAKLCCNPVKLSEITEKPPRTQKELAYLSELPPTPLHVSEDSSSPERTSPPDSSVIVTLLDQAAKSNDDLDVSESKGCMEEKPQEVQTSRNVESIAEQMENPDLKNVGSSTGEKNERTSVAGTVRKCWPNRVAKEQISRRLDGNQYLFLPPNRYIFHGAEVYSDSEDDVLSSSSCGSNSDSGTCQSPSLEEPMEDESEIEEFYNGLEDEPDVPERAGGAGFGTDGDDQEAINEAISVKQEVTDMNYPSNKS
Outline: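 Deacetylation of a modified p53 acetyl-lysine peptide ([…], 5TMR-labelled, Nle for Met) by 10 nM N-His SIRT1 with 120 μM βNAD+, pH 8, 25 min, 25 °C. Substrate and product masses measured by MS after formic acid quench; nicotinamide defines maximal inhibition.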

TNF = TNF IC50 (column of Table 1; method not shown); type: cell-based

Row | Compound | Emax (SIRT1) [%] | EC1.5 (SIRT1) | IC50 (TNF) [µM]
1 | Cc1cncc(NC(=O)N2CCCc3ccc(-c4cccc(C(F)(F)F)c4)nc32)c1 [Compound 585, N-(5-methylpyridin-3-yl)-7-(3-(trifluoromethyl)phenyl)-3,4-dihydro-1,8-naphthyridine-1(2H)-carboxamide] | > 200 | A (EC1.5<1.0 μM) | < 20
2 | O=C(Nc1ccnc(N2CCC2)c1)N1CCCOc2ccc(-c3cccc(Cl)c3)nc21 [Compound 608] | > 200 | A (EC1.5<1.0 μM) | < 20
3 | O=C(Nc1ccnc(N2CCCC2)c1)N1CCCOc2ccc(-c3cccc(N4CCCC4)c3)nc21 [Compound 612] | > 200 | A (EC1.5<1.0 μM) | < 20
4 | O=C(Nc1ccncn1)N1CCOc2ccc(-c3cccc(C(F)(F)F)c3)nc21 [Compound 503] | > 200 | A (EC1.5<1.0 μM) | ≥ 20
5 | O=C(Nc1cccc(OC[C@H](O)CO)n1)N1CCOc2ccc(-c3cccc(C(F)(F)F)c3)nc21 [Compound 570, (R)—N-(6-(2,3-dihydroxypropoxy)pyridin-2-yl)-6-(3-(trifluoromethyl)phenyl)-2H-pyrido[3,2-b][1,4]oxazine-4(3H)-carboxamide] | > 200 | A (EC1.5<1.0 μM) | < 20
6 | Cc1csc(NC(=O)N2CCCc3ccc(-c4cccc(Cl)c4)nc32)n1 [Compound 616] | > 200 | A (EC1.5<1.0 μM) | ≥ 20
7 | Cc1cc(NC(=O)N2CCCOc3ccc(-c4cccc(Cl)c4)nc32)ccn1 [Compound 613] | > 200 | A (EC1.5<1.0 μM) | < 20
8 | CN1CCN(C(=O)Nc2cccnn2)c2nc(-c3cccc(C(F)(F)F)c3)ccc21 [Compound 537] | > 200 | A (EC1.5<1.0 μM) | ≥ 20
9 | Cc1cc(NC(=O)N2CCOc3ccc(-c4ccc5c(c4)CCO5)nc32)cc(C)n1 [Compound 574] | > 200 | A (EC1.5<1.0 μM) | ≥ 20
10 | O=C(Nc1ccnc(N2CCC2)c1)N1CCCc2ccc(-c3cccc(Cl)c3)nc21 [Compound 617] | > 200 | A (EC1.5<1.0 μM) | < 20
11 | O=C(Nc1cncc(F)c1)N1CCCc2ccc(-c3cccc(C(F)(F)F)c3)nc21 [Compound 586] | > 200 | A (EC1.5<1.0 μM) | < 20
12 | O=C(Nc1ccncc1F)N1CCOc2ccc(-c3cccc(C(F)(F)F)c3)nc21 [Compound 549] | > 200 | A (EC1.5<1.0 μM) | ≥ 20
13 | Cc1cc(NC(=O)N2CC(C)(C)Oc3ccc(-c4cccc(Cl)c4)nc32)cc(C)n1 [Compound 602] | > 200 | A (EC1.5<1.0 μM) | ≥ 20
14 | O=C(Nc1cccc(CN2CCOCC2)n1)N1CCOc2ccc(-c3cccc(C(F)(F)F)c3)nc21 [Compound 510] | > 200 | A (EC1.5<1.0 μM) | ≥ 20
15 | O=C(Nc1ccc(F)cn1)N1CCOc2ccc(-c3cccc(C(F)(F)F)c3)nc21 [Compound 566] | > 200 | A (EC1.5<1.0 μM) | ≥ 20
16 | O=C(Nc1cccc(OC[C@@H](O)CO)n1)N1CCOc2ccc(-c3cccc(C(F)(F)F)c3)nc21 [Compound 571] | > 200 | A (EC1.5<1.0 μM) | < 20
17 | Cc1cc(C)nc(NC(=O)N2CCN(C)c3ccc(-c4cccc(C(F)(F)F)c4)nc32)c1 [Compound 534] | ≤ 200 | A (EC1.5<1.0 μM) | ≥ 20
18 | O=C(Nc1ccccn1)N1CCOc2ccc(-c3cccc(C(F)(F)F)c3)nc21 [Compound 502] | > 200 | A (EC1.5<1.0 μM) | ≥ 20
19 | CC1(C)CN(C(=O)Nc2ccncc2)c2nc(-c3cccc(C(F)(F)F)c3)ccc2O1 [Compound 560, 2,2-dimethyl-N-(pyridin-4-yl)-6-(3-(trifluoromethyl)phenyl)-2H-pyrido[3,2-b][1,4]oxazine-4(3H)-carboxamide] | > 200 | A (EC1.5<1.0 μM) | ≥ 20
20 | O=C(Nc1ccnc(N2CCC2)c1)N1CCCOc2ccc(-c3cccc(N4CCCC4)c3)nc21 [Compound 611] | > 200 | A (EC1.5<1.0 μM) | < 20
21 | O=C(Nc1ccnc(N2CCC2)c1)N1CCOc2ccc(-c3cccc(C(F)(F)F)c3)nc21 [Compound 513] | > 200 | A (EC1.5<1.0 μM) | ≥ 20
22 | Cc1cncc(NC(=O)N2CC(C)(C)Oc3ccc(-c4cccc(F)c4)nc32)c1 [Compound 591] | > 200 | A (EC1.5<1.0 μM) | < 20
23 | Cc1cncc(NC(=O)N2CCCOc3ccc(-c4cccc(Cl)c4)nc32)c1 [Compound 598] | > 200 | A (EC1.5<1.0 μM) | < 20
24 | Cc1csc(NC(=O)N2CCN(C)c3ccc(-c4cccc(C(F)(F)F)c4)nc32)n1 [Compound 533] | > 200 | A (EC1.5<1.0 μM) | ≥ 20
25 | CN1CCN(C(=O)Nc2ccncc2)c2nc(-c3cccc(C(F)(F)F)c3)ccc21 [Compound 531] | > 200 | A (EC1.5<1.0 μM) | < 20
26 | CN1CCN(C(=O)Nc2ccncn2)c2nc(-c3cccc(C(F)(F)F)c3)ccc21 [Compound 535] | > 200 | A (EC1.5<1.0 μM) | ≥ 20

Results, then the molecule that gave them:

Row | Emax (SIRT1) [%] | EC1.5 (SIRT1) | IC50 (TNF) [µM] | Compound
27 | > 200 | A (EC1.5<1.0 μM) | ≥ 20 | Cc1csc(NC(=O)N2CC(C)(C)Oc3ccc(-c4cccc(F)c4)nc32)n1 [Compound 622]
28 | > 200 | A (EC1.5<1.0 μM) | < 20 | Cc1csc(NC(=O)N2CC(C)(C)Oc3ccc(-c4cccc(N(C)C)c4)nc32)n1 [Compound 624]
29 | > 200 | A (EC1.5<1.0 μM) | ≥ 20 | Cc1cc(NC(=O)N2CCOc3c(C)cc(-c4cccc(Cl)c4)nc32)cc(C)n1 [Compound 689]
30 | > 200 | A (EC1.5<1.0 μM) | < 20 | O=C(Nc1ccncc1)N1CCCc2ccc(-c3cccc(C(F)(F)F)c3)nc21 [Compound 645]
31 | > 200 | A (EC1.5<1.0 μM) | < 20 | Cc1csc(NC(=O)N2CC(C)(C)Oc3ccc(-c4cccc(N5CCOCC5)c4)nc32)n1 [Compound 675]
32 | > 200 | A (EC1.5<1.0 μM) | ≥ 20 | Cc1cc(NC(=O)N2CCOc3ccc(-c4cccc(C#N)c4)nc32)cc(C)n1 [Compound 631]
33 | > 200 | A (EC1.5<1.0 μM) | < 20 | O=C(Nc1ccccn1)N1CCCc2ccc(-c3cccc(C(F)(F)F)c3)nc21 [Compound 646]
34 | > 200 | A (EC1.5<1.0 μM) | < 20 | O=C(Nc1cccc(OC[C@H](O)CO)n1)N1CCOc2ccc(-c3ccc4c(c3)CCO4)nc21 [Compound 695]
35 | > 200 | A (EC1.5<1.0 μM) | ≥ 20 | Cc1cncc(NC(=O)N2CC(C)(C)Oc3ccc(-c4cccc(N5CC[C@H](F)C5)c4)nc32)c1 [Compound 660, (S)-6-(3-(3-fluoropyrrolidin-1-yl)phenyl)-2,2-dimethyl-N-(5-methylpyridin-3-yl)-2H-pyrido[3,2-b][1,4]oxazine-4(3H)-carboxamide]
36 | ≤ 200 | A (EC1.5<1.0 μM) | ≥ 20 | Cc1cc(C)nc(NC(=O)N2CCOc3c(C)cc(-c4cccc(C(F)(F)F)c4)nc32)c1 [Compound 672]
37 | > 200 | A (EC1.5<1.0 μM) | < 20 | Cc1cc(NC(=O)N2CCOc3ccc(-c4cccc(N(C)C)c4)nc32)cc(C)n1 [Compound 619]
38 | > 200 | A (EC1.5<1.0 μM) | < 20 | O=C(Nc1ccnc(OCC(O)CO)n1)N1CCCc2ccc(-c3cccc(C(F)(F)F)c3)nc21 (stereo not drawn) [Compound 639]
39 | > 200 | A (EC1.5<1.0 μM) | ≥ 20 | Cc1cc(-c2cccc(Cl)c2)nc2c1OCCN2C(=O)Nc1ccnc(N2CCC2)c1 [Compound 692]
40 | > 200 | A (EC1.5<1.0 μM) | ≥ 20 | Cc1csc(NC(=O)N2CCOc3c(C)cc(-c4cccc(C(F)(F)F)c4)nc32)n1 [Compound 668, 8-methyl-N-(4-methylthiazol-2-yl)-6-(3-(trifluoromethyl)phenyl)-2H-pyrido[3,2-b][1,4]oxazine-4(3H)-carboxamide]
41 | > 200 | A (EC1.5<1.0 μM) | ≥ 20 | Cc1cc(-c2cccc(C(F)(F)F)c2)nc2c1OCCN2C(=O)Nc1ccncn1 [Compound 669]
